Experimental data as given in patent US3960859A, “21-Deoxydihydroajmaline derivatives” (VEB Arzneimittelwerk Dresden, priority 1975, dated 1976).
Structures can show the parent of a compound that is named as a salt.

Columns and labels:
[1] = background statement; cited from earlier work
[2] = system: aconitine-induced ventricular extrasystoles; assay: Aconitine test procedures carried out in rats (antiarrhythmic activity); assay type: in vivo
Text: (§1) In the procedures the term ED20 designates the dose in mg/kg at which only isolated or sporadic ventricular extrasystoles occur.

in vivo = conditions: for Q: Table 1, ratio not defined in text (equals LD50/ED20)
Text: as §1

[3] = system: fibrillation or flutter generated by aconitine; assay type: in vivo; conditions: dog

| SMILES | rhythm regulating / antiarrhythmic activity (in words) [1] | ED20 ([2]; Rattus norvegicus) [mg/kg] | Q (in vivo) | LD50 (in vivo; rat, in vivo) [mg/kg] | side effects ([3]; Example 3 (0.6 mg/kg)) | therapeutic effectiveness against aconitine fibrillation or flutter ([3]; Example 3 at 0.6 mg/kg compared with N-propylajmaline at 0.3 mg/kg) | undesirable side effects, share of cases ([3]; N-propylajmaline (0.3 mg/kg)) | ED20 ([2]; aconitine test, rats, dose at which only isolated or sporadic ventricular extrasystoles occur) [mg/kg] | LD50 (in vivo; Table 1, aconitine test procedures in rats, unit not given) |
| --- | --- | --- | --- | --- | --- | --- | --- | --- | --- |
| CCC(C)C1CC2NC3CC4(c5ccccc5N(C)C24)C(O)C31 (stereo not shown) [21-deoxydihydroajmaline] | rhythm regulating activity is extensively lost | – | – | – | – | – | – | – | – |
| CC[C@H]1[C@@H]2C[C@H]3[C@@H]4N(C)c5ccccc5[C@]45C[C@@H]([C@H]2[C@H]5O)N3[C@@H]1O [Ajmaline, ajmaline] | valuable antiarhythmic properties | 2.13 | 12.2 | 26 | – | – | – | – | – |
| CCC(C)C1CC2C3N(C)c4ccccc4C34CC(C1C4O)N2CCN1CCCCC1 (stereo not drawn) [Example 3, 4-(β-piperidinoethyldeoxydihydroajmaline-dihydrochloride)] | – | 0.25 | 21.6 | 5.4 | no side effects | about the same therapeutic effectiveness as N-propylajmaline administered in a dose of 0.3 mg/kg | – | – | – |
| CCC[N+]12[C@H](O)[C@@H](CC)[C@@H]3C[C@H]1[C@@H]1N(C)c4ccccc4[C@]14C[C@H]2[C@@H]3[C@H]4O [N-Propylajmaline, N-propylajmaline] | – | – | – | – | – | – | at least 30% | 0.17 | 1.4 |
